What was measured:
PC-3 = experiment: Growth inhibition of human PC3 cells at 1 to 100 uM after 24 hrs by MTS assay relative to control; assay type: functional
SH-SY5Y [1] = experiment: Growth inhibition of human SH-SY5Y cells at 1 to 100 uM after 24 hrs by MTS assay relative to control; assay type: functional
HEK293 [2] = experiment: (§1) Growth inhibition of HEK293 cells at 1 to 100 uM after 24 hrs by MTS assay relative to control; assay type: cell-based; conditions: human, hek293, 24 h, 100 µM
Carbonic anhydrase 9 = Carbonic anhydrase 9 (Homo sapiens, UniProt Q16790)
Description: Inhibition of recombinant human carbonic anhydrase 9 catalytic domain preincubated for 15 mins prior to testing measured for 10 to 100 secs by phenol red-based stopped-flow CO2 hydration assay

HEK293 [3] = experiment: Growth inhibition of HEK293 cells after 24 hrs by MTS assay; assay type: cell-based; conditions: human, hek293, 24 h
SH-SY5Y [4] = experiment: Antiproliferative activity against CoCl2-simulated human SH-SY5Y cells assessed as reduction in cell viability at 30 uM pretreated for 24 hrs followed by CoCl2 addition measured after overnight incubation by MTS assay; assay type: functional
[5] = as §1; assay type: cell-based; conditions: human, HEK293 cells; read-out: GI

Row | SMILES | Ki (Carbonic anhydrase 9) [µM] | growth inhibition (GI) (PC-3) [%] | growth inhibition (GI) (SH-SY5Y [1]) [%] | growth inhibition (GI) (HEK293 [2]) | growth inhibition (GI) (HEK293 [3]) | Activity (SH-SY5Y [4]) [%] | inhibition at 24 h, 100 µM [5] [%]
1 | CCn1cc(-c2cc(C(=O)O)n[nH]2)c2ccccc21 |  | 85 | 85 | Non-Toxic |  |  | 
2 | CC(C)n1cc(-c2cc(C(=O)O)[nH]n2)c2ccccc21 | 18.9 | 85 | 85 | Non-Toxic |  |  | 
3 | CCCCn1cc(-c2cc(C(=O)OC)[nH]n2)c2ccccc21 | 7.9 |  |  |  |  |  | 

More lines, in order of falling Ki (Carbonic anhydrase 9), values ahead:

Row | Ki (Carbonic anhydrase 9) [µM] | SMILES | growth inhibition (GI) (PC-3) [%] | growth inhibition (GI) (SH-SY5Y [1]) [%] | growth inhibition (GI) (HEK293 [2]) | growth inhibition (GI) (HEK293 [3]) | Activity (SH-SY5Y [4]) [%] | inhibition at 24 h, 100 µM [5] [%]
4 | 7.36 | COC(=O)c1cc(-c2cn(C(C)C)c3ccccc23)n[nH]1 | 85 | 85 |  | Dose-dependent effect | 40 | 70
5 | 4.51 | CCCCn1cc(-c2cc(C(=O)O)[nH]n2)c2ccccc21 |  |  |  |  |  | 
6 | 3.02 | CCn1cc(-c2cc(C(=O)OC)n(C)n2)c2ccccc21 |  |  |  |  |  | 
7 | 2.91 | CCn1cc(-c2cc(C(=O)O)n(C)n2)c2ccccc21 |  |  |  |  |  | 
8 | 0.47 | CCn1cc(-c2cc(C(=O)OC)[nH]n2)c2ccccc21 | 85 | 85 | Non-Toxic |  |  | 
